The text below walks through data of PMC12505902, “Inhibitors of trehalose-6-phosphate synthase activity in fungal pathogens compromise thermal tolerance pathways” (mBio, 2025).

The test has as its target T1, 6xHis-CaTps1 (Candida albicans, UniProt Q92410).
T1 construct: Briefly, the full-length; thrombin cleavage site (pET-28a linker) (N); made in house; host or cells: E. coli BL21(DE3)pLysS
T1 sequence (Q92410 1-478): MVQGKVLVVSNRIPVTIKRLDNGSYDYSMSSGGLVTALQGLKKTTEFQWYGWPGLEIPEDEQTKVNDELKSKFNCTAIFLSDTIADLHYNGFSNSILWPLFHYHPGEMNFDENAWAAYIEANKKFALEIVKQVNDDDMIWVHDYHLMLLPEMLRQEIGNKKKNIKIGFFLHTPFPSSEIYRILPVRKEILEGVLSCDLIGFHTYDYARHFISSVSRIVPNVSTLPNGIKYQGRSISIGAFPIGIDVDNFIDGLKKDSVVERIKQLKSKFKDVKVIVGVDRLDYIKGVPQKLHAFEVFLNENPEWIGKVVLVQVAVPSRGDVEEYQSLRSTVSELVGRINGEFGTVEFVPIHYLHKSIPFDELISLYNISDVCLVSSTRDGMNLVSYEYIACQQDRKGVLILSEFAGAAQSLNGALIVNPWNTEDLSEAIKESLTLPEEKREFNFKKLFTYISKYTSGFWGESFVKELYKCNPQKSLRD
Kind of test: Spectrophotometric-coupled Tps1 enzyme activity assay. To be noted: 1 mM 4456dh, 4°C for 16 hours. The test is classed as biochemical, C. albicans. The method, then:
Fig 2 4456dh binds Tps1 and inhibits Tps1 activity. (A) Structure of 4456dh. (B and C) Glo-melt thermal shift assays reveal 4456dh destabilizes 6xHis-CaTps1 (B) and 6xHis-CnTps1 (C). The first derivative of the raw data was used to determine the melting temperature of 1 µM 6xHis-CaTps1 (B) and 1 µM 6xHis-CnTps1 (C) treated without (black) or with 2 mM 4456dh (red). […] The resulting dose-response curves were fitted to a one-site binding model to extract Kd values; the SD was calculated using the Kd values from each independent experiment (n = 3). (F) Tps1 enzyme activity assay with 5 µM 6xHis-CaTps1 (F) and 6xHis-CnTps1 (G) ±1 mM 4456dh. Error bars represent SE. […]
The ability of 4456dh to inhibit the activity of CaTps1 was tested using a spectrophotometric-coupled Tps1 enzyme assay, in which recombinant 6xHis-CaTps1 was incubated with 1 mM 4456dh at 4°C for 16 hours. […] Similarly, the effect of 1 mM 4456dh on 6xHis-CnTps1 activity was determined. […]
82 determined by SDS-PAGE analysis, were pooled and concentrated to 1 mg/mL for downstream […]
93 The data were acquired with MO.Control 1.5.3 (NanoTemper Technologies GmbH). Recorded
94 data were analyzed with MO.Affinity Analysis 2.2.7 (NanoTemper Technologies GmbH). […]
100 2X Glo-melt dye. Thermal denaturation was measured using an RT-PCR thermocycler (BioRad) […]
102 determined by identifying the inflection point of the derivative data. […]

With `Cn1cc(-c2csc(NC(=O)Cc3ccccn3)n2)cn1` [Compound 4456dh], the “reduction of 6xHis-CaTps1 activity” value is reported as “approximately 30%”.
